Strand notation (5' to 3'): a small letter for the sugar, then the base; units joined by * are phosphorothioate-linked, units joined directly phosphodiester-linked; [ ] holds rarer units or linkages, { } end groups; capitals alone tell only the bases. {Alk-SMPT-C6} = Alk-SMPT-C6 linker modification (publication code); [invdT] = inverted (3'-3') thymidine; d = 2'-deoxy (DNA); m = 2'-O-methyl; f = 2'-fluoro
Test system: human (tumor) Hif2α (EPAS1) mRNA
Experiment: Hif2α knockdown in orthotopic RCC tumor bearing mice, single injection of RNAi trigger-delivery polymer conjugate, RT-qPCR (Table 7)
Type: in vivo
Conditions: single tail vein injection, relative to isotonic glucose
Procedure, shortened: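 A single intravenous dose of Hif2α RNAi trigger–delivery polymer conjugate, or isotonic glucose vehicle, was given to nude mice with subcapsular A498-SEAP renal tumours (about 5–6 weeks old). At the indicated time, tumour RNA was assayed by biplex TaqMan qPCR against CycA, and relative expression was calculated by ΔΔCT versus vehicle.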

[1] = RNAi trigger 150 μg, polymer 100A 300 μg
[2] = RNAi trigger 115 μg, polymer 100A 375 μg

| Substance | Relative Expression day 4 (Hif2α mRNA in kidney tumor) [1] | Relative Expression day 4 (Hif2α mRNA in kidney tumor) [2] |
| --- | --- | --- |
| AD01410 (antisense TUUCAUGAAAUCGUUACGUCGGCUAU; sense UAUAUCGACGUAACGAUUUCAUGAAA; Hif2alpha RNAi agent antisense strand; modified_base 25 modified base = “2′-hydroxy corresponding nucleoside”; modified_base 2,4,6,8,10,12,14,16,18,20 /mod_base = “2′-deoxy-2′-fluoro corresponding nucleoside”; modified_base 3,5,7,11,13,15,17,19,21,22,23,24,26 /mod_base = “2′-O-methyl corresponding nucleoside”; modified_base 9 /mod_base = “2′-3′ seco corresponding nucleotide”; modified_base 2,24 /m; Hif2alpha RNAi agent sense strand; modified_base 2,4 modified base = “2′-hydroxy corresponding nucleoside”; modified_base 6,8,10,12,14,16,18,20,22,24,26 /mod_base = “2′-deoxy-2′-fluoro correspondi) | 0.41 |  |
| AD01411 (antisense TUUCAUGAAAUCGUUACGUCGGCUAU; sense UAUAUCGACGUAACGAUUUCAUGAAA; Hif2alpha RNAi agent antisense strand; modified_base 25 modified base = “2′-hydroxy corresponding nucleoside”; modified_base 2,4,6,8,10,12,14,16,18,20 /mod_base = “2′-deoxy-2′-fluoro corresponding nucleoside”; modified_base 3,5,7,11,13,15,17,19,21,22,23,24,26 /mod_base = “2′-O-methyl corresponding nucleoside”; modified_base 9 /mod_base = “2′-3′ seco corresponding nucleotide”; modified_base 2,24 /m; Hif2alpha RNAi agent sense strand; modified_base 2,4 modified base = “2′-hydroxy corresponding nucleoside”; modified_base 6,8,10,12,14,16,18,20,22,24,26 /mod_base = “2′-deoxy-2′-fluoro correspondi) | 0.36 |  |
| AD01424 (antisense TUUCAUGAAAUCGUUACGUCGGCUAU; sense UAUAUCGACGUAACGAUUUCAUGAAA; Hif2alpha RNAi agent antisense strand; modified_base 25 modified base = “2′-hydroxy corresponding nucleoside”; modified_base 2,4,6,8,10,12,14,16,18,20 /mod_base = “2′-deoxy-2′-fluoro corresponding nucleoside”; modified_base 3,5,7,11,13,15,17,19,21,22,23,24,26 /mod_base = “2′-O-methyl corresponding nucleoside”; modified_base 9 /mod_base = “2′-3′ seco corresponding nucleotide”; modified_base 2,3,23,; Hif2alpha RNAi agent sense strand; modified_base 2,4 modified base = “2′-hydroxy corresponding nucleoside”; modified_base 6,8,10,12,14,16,18,20,22,24 /mod_base = “2′-deoxy-2′-fluoro corresponding) | 0.54 |  |
| AD01476 (antisense dTfUmUfCmAfUmGfAmAfAmUfCmGfUmUfAmCfGmUdT*dT; sense ACGUAACGAUUUCAUGAAA; siRNA; sense: sugars from the 5' end fmfmfmfmfmfmfmfmfmf, [invdT] at 3' end, all phosphodiester, 5' {Alk-SMPT-C6}, methylation of C not given here; further chemistry not fully specified) |  | 0.32 |
| AD01522 (antisense TUUCAUGAAAUCGUUACGUTT; sense ACGUAACGAUUUCAUGAAAT; Hif2alpha RNAi agent antisense strand; modified_base 2,4,6,8,10,14,16,18 /mod_base = “2′-deoxy-2′-fluoro corresponding nucleoside”; modified_base 3,5,7,9,11,12,13,15,17,19 /mod_base = “2′-O-methyl corresponding nucleoside”; modified_base 21 /mod_base = “5′-phosphorothioate corresponding nucleotide”; Hif2alpha RNAi agent sense strand; modified_base 1,3,5,7,8,9,11,13,15,17,19 /mod_base = “2′-deoxy-2′-fluoro corresponding nucleoside”; modified_base 2,4,6,10,12,14,16,18 /mod_base = “2′-O-methyl corresponding nucleoside”; modified_base 20 /mod_base = “3′-3′-linked nucleotide”; modified_base 1 /mo) |  | 0.44 |
| AD01523 (antisense TUUCAUGAAAUCGUUACGUTT; sense ACGUAACGAUUUCAUGAAAT; Hif2alpha RNAi agent antisense strand; modified_base 2,4,6,8,10,13,14,16,18 /mod_base = “2′-deoxy-2′-fluoro corresponding nucleoside”; modified_base 3,5,7,9,11,12,15,17,19 /mod_base = “2′-O-methyl corresponding nucleoside”; modified_base 21 /mod_base = “5′-phosphorothioate corresponding nucleotide”; Hif2alpha RNAi agent sense strand; modified_base 1,3,5,8,9,11,13,15,17,19 /mod_base = “2′-deoxy-2′-fluoro corresponding nucleoside”; modified_base 2,4,6,7,10,12,14,16,18 /mod_base = “2′-O-methyl corresponding nucleoside”; modified_base 20 /mod_base = “3′-3′-linked nucleotide”; modified_base 1 /mo) |  | 0.49 |
| AD01524 (antisense TUUCAUGAAAUCGUUACGUTT; sense ACGUAACGAUUUCAUGAAAT; Hif2alpha RNAi agent antisense strand; modified_base 2,4,6,8,10,12,14,16,18 /mod_base = “2′-deoxy-2′-fluoro corresponding nucleoside”; modified_base 3,5,7,9,11,13,15,17,19 /mod_base = “2′-O-methyl corresponding nucleoside”; modified_base 2,3,21 /mod_base = “5′-phosphorothioate corresponding nucleotide”; Hif2alpha RNAi agent sense strand; modified_base 1,3,5,7,9,11,13,15,17,19 /mod_base = “2′-deoxy-2′-fluoro corresponding nucleoside”; modified_base 2,4,6,8,10,12,14,16,18 /mod_base = “2′-O-methyl corresponding nucleoside”; modified_base 20 /mod_base = “3′-3′-linked nucleotide”; modified_base 1) |  | 0.26 |
| AD01554 (antisense TUUCAUGAAAUCGUUACGUTT; sense ACGUAACGAUUUCAUGAAAT; Hif2alpha RNAi agent antisense strand; modified_base 2,4,6,8,10,13,14,16,18 /mod_base = “2′-deoxy-2′-fluoro corresponding nucleoside”; modified_base 3,5,7,9,11,12,15,17,19 /mod_base = “2′-O-methyl corresponding nucleoside”; modified_base 2,3,21 /mod_base = “5′-phosphorothioate corresponding nucleotide”; Hif2alpha RNAi agent sense strand; modified_base 1,3,5,8,9,11,13,15,17,19 /mod_base = “2′-deoxy-2′-fluoro corresponding nucleoside”; modified_base 2,4,6,7,10,12,14,16,18 /mod_base = “2′-O-methyl corresponding nucleoside”; modified_base 20 /mod_base = “3′-3′-linked nucleotide”; modified_base 1) |  | 0.29 |
| AD01555 (antisense TUUCAUGAAAUCGUUACGUTT; sense ACGUAACGAUUUCAUGAAAT; Hif2alpha RNAi agent antisense strand; modified_base 2,4,6,8,10,14,16,18 /mod_base = “2′-deoxy-2′-fluoro corresponding nucleoside”; modified_base 3,5,7,9,11,12,13,15,17,19 /mod_base = “2′-O-methyl corresponding nucleoside”; modified_base 2,3,21 /mod_base = “5′-phosphorothioate corresponding nucleotide”; Hif2alpha RNAi agent sense strand; modified_base 1,3,5,7,8,9,11,13,15,17,19 /mod_base = “2′-deoxy-2′-fluoro corresponding nucleoside”; modified_base 2,4,6,10,12,14,16,18 /mod_base = “2′-O-methyl corresponding nucleoside”; modified_base 20 /mod_base = “3′-3′-linked nucleotide”; modified_base 1) |  | 0.20 |
